Laboratory results reported in ChEMBL document CHEMBL2413072, “Synthesis and in vitro anticancer studies of novel C-2 arylidene congeners of lantadenes” (2013).

Columns and labels:
Assay type in all cases: functional
[1] = Growth inhibition of human HCC2998 cells by sulforhodamine B assay
[2] = test system: HOP-62; experiment: Growth inhibition of human HOP62 cells by sulforhodamine B assay
[3] = test system: MOLT-4; experiment: Growth inhibition of human MOLT4 cells by sulforhodamine B assay
[4] = test system: RPMI-8226; experiment: Growth inhibition of human RPMI8226 cells by sulforhodamine B assay
[5] = test system: SNB-19; experiment: Growth inhibition of human SNB19 cells assessed as cell growth at 10^-8 M by sulforhodamine B assay; details: read-out: Activity
[6] = test system: HT-29; experiment: Growth inhibition of human HT-29 cells assessed as cell growth at 10^-8 M by sulforhodamine B assay; details: read-out: Activity
[7] = test system: NCI-H460; experiment: Growth inhibition of human NCI-H460 cells assessed as cell growth at 10^-8 M by sulforhodamine B assay; details: read-out: Activity
[8] = test system: HL-60(TB); experiment: Growth inhibition of human HL-60(TB) cells assessed as cell growth at 10^-8 M by sulforhodamine B assay; details: read-out: Activity
[9] = test system: SN12C; experiment: Growth inhibition of human SN12C cells by sulforhodamine B assay
[10] = test system: OVCAR-4; experiment: Growth inhibition of human OVCAR4 cells by sulforhodamine B assay
[11] = test system: UO-31; experiment: Growth inhibition of human UO31 cells assessed as cell growth at 10^-4 M by sulforhodamine B assay; details: read-out: Activity
[12] = test system: TK-10; experiment: Growth inhibition of human TK10 cells assessed as cell growth at 10^-4 M by sulforhodamine B assay; details: read-out: Activity
[13] = test system: RXF 393; experiment: Growth inhibition of human RXF393 cells assessed as cell growth at 10^-4 M by sulforhodamine B assay; details: read-out: Activity
[14] = test system: SW-620; experiment: Growth inhibition of human SW620 cells assessed as cell growth at 10^-4 M by sulforhodamine B assay; details: read-out: Activity
[15] = test system: HCT-15; experiment: Growth inhibition of human HCT15 cells assessed as cell growth at 10^-4 M by sulforhodamine B assay; details: read-out: Activity
[16] = Growth inhibition of human HCC2998 cells assessed as cell growth at 10^-4 M by sulforhodamine B assay; details: HCC 2998, read-out: Activity
[17] = test system: NCI-H322M; experiment: Growth inhibition of human NCI-H322M cells assessed as cell growth at 10^-4 M by sulforhodamine B assay; details: read-out: Activity
[18] = test system: HOP-92; experiment: Growth inhibition of human HOP92 cells assessed as cell growth at 10^-4 M by sulforhodamine B assay; details: read-out: Activity
[19] = test system: MOLT-4; experiment: Growth inhibition of human MOLT4 cells assessed as cell growth at 10^-4 M by sulforhodamine B assay; details: read-out: Activity
[20] = test system: CCRF-CEM; experiment: Growth inhibition of human CCRF-CEM cells assessed as cell growth at 10^-4 M by sulforhodamine B assay; details: read-out: Activity
[21] = test system: MCF7; experiment: Growth inhibition of human MCF7 cells assessed as cell growth at 10^-6 M by sulforhodamine B assay; details: read-out: Activity
[22] = test system: A498; experiment: Growth inhibition of human A498 cells assessed as cell growth at 10^-6 M by sulforhodamine B assay; details: read-out: Activity
[23] = test system: SK-OV-3; experiment: Growth inhibition of human SKOV3 cells assessed as cell growth at 10^-6 M by sulforhodamine B assay; details: read-out: Activity
[24] = test system: OVCAR-4; experiment: Growth inhibition of human OVCAR4 cells assessed as cell growth at 10^-6 M by sulforhodamine B assay; details: read-out: Activity
[25] = test system: UACC-257; experiment: Growth inhibition of human UACC257 cells assessed as cell growth at 10^-6 M by sulforhodamine B assay; details: read-out: Activity
[26] = test system: U-251; experiment: Growth inhibition of human U251 cells assessed as cell growth at 10^-6 M by sulforhodamine B assay; details: read-out: Activity
[27] = test system: SF-268; experiment: Growth inhibition of human SF268 cells assessed as cell growth at 10^-6 M by sulforhodamine B assay; details: read-out: Activity
[28] = test system: NCI-H460; experiment: Growth inhibition of human NCI-H460 cells assessed as cell growth at 10^-6 M by sulforhodamine B assay; details: read-out: Activity
[29] = test system: NCI-H322M; experiment: Growth inhibition of human NCI-H322M cells assessed as cell growth at 10^-6 M by sulforhodamine B assay; details: read-out: Activity
[30] = test system: T47D; experiment: Growth inhibition of human T47D cells assessed as cell growth at 10^-7 M by sulforhodamine B assay; details: read-out: Activity
[31] = test system: IGROV-1; experiment: Growth inhibition of human IGROV1 cells assessed as cell growth at 10^-7 M by sulforhodamine B assay; details: read-out: Activity
[32] = test system: SK-MEL-5; experiment: Growth inhibition of human SK-MEL-5 cells assessed as cell growth at 10^-7 M by sulforhodamine B assay; details: read-out: Activity
[33] = test system: M14; experiment: Growth inhibition of human M14 cells assessed as cell growth at 10^-7 M by sulforhodamine B assay; details: read-out: Activity
[34] = test system: SF-295; experiment: Growth inhibition of human SF295 cells assessed as cell growth at 10^-7 M by sulforhodamine B assay; details: read-out: Activity
[35] = test system: HCT-116; experiment: Growth inhibition of human HCT116 cells assessed as cell growth at 10^-7 M by sulforhodamine B assay; details: read-out: Activity
[36] = test system: K562; experiment: Growth inhibition of human K562 cells assessed as cell growth at 10^-7 M by sulforhodamine B assay; details: read-out: Activity
[37] = test system: T47D; experiment: Growth inhibition of human T47D cells assessed as cell growth at 10^-8 M by sulforhodamine B assay; details: read-out: Activity
[38] = test system: DU-145; experiment: Growth inhibition of human DU145 cells assessed as cell growth at 10^-8 M by sulforhodamine B assay; details: read-out: Activity
[39] = test system: MCF7; experiment: Growth inhibition of human MCF7 cells assessed as cell growth at 10^-8 M by sulforhodamine B assay; details: read-out: Activity
[40] = test system: PC-3; experiment: Growth inhibition of human PC3 cells assessed as cell growth at 10^-8 M by sulforhodamine B assay; details: read-out: Activity
[41] = test system: RXF 393; experiment: Growth inhibition of human RXF393 cells assessed as cell growth at 10^-8 M by sulforhodamine B assay; details: read-out: Activity
[42] = test system: SK-OV-3; experiment: Growth inhibition of human SKOV3 cells assessed as cell growth at 10^-8 M by sulforhodamine B assay; details: read-out: Activity
[43] = read-out: LC50 (the source's name)
[44] = read-out: pLC50 (the source's name) (converted)

CC(C)=CC(=O)O[C@@H]1CC(C)(C)C[C@H]2C3=CC[C@@H]4[C@@]5(C)CC[C@H](O)C(C)(C)[C@@H]5CC[C@@]4(C)[C@]3(C)CC[C@@]12C(=O)O [Reduced Lantadene B]
GI50 ([1]; HCC 2998, read-out: GI50): 3.72 µM
CC50 ([1]; HCC 2998, read-out: LC50 (the source's name)): 62.9 µM
TGI ([1]; HCC 2998, read-out: TGI): 15.3 µM
GI50 ([1]; HCC 2998, read-out: pGI50 (converted)): 3.72 µM
CC50 ([1]; HCC 2998, read-out: pLC50 (the source's name) (converted)): 63.1 µM
TGI ([1]; HCC 2998, read-out: pTGI (converted)): 15.5 µM
GI50 ([2]; read-out: GI50): 7.47 µM
LC50 (concentration killing 50% of cells) ([2]; read-out: LC50): 79.8 µM
TGI ([2]; read-out: TGI): 26.6 µM
GI50 ([2]; read-out: pGI50 (converted)): 7.41 µM
LC50 (concentration killing 50% of cells) ([2]; read-out: pLC50 (converted)): 79.4 µM
TGI ([2]; read-out: pTGI (converted)): 26.3 µM
GI50 ([3]; read-out: GI50): 3.02 µM
CC50 [3, 43]: > 100 µM
TGI ([3]; read-out: TGI): 20.6 µM
GI50 ([3]; read-out: pGI50 (converted)): 3.02 µM
CC50 [3, 44]: > 100 µM
TGI ([3]; read-out: pTGI (converted)): 20.4 µM
GI50 ([4]; read-out: GI50): 2430 nM
CC50 [4, 43]: > 100 µM
TGI ([4]; read-out: TGI): 38.3 µM
GI50 ([4]; read-out: pGI50 (converted)): 2450 nM
CC50 [4, 44]: > 100 µM
TGI ([4]; read-out: pTGI (converted)): 38 µM
growth at 0.01 µM [5]: 93%
growth at 0.01 µM [6]: 91%
growth at 0.01 µM [7]: 105%
growth at 0.01 µM [8]: 101%
GI50 ([9]; read-out: GI50): 2880 nM
CC50 [9, 43]: 37 µM
TGI ([9]; read-out: TGI): 10.9 µM
GI50 ([9]; read-out: pGI50 (converted)): 2880 nM
CC50 [9, 44]: 37.2 µM
TGI ([9]; read-out: pTGI (converted)): 11 µM
GI50 ([10]; read-out: GI50): 8.59 µM
CC50 [10, 43]: > 100 µM
TGI ([10]; read-out: TGI): 35.6 µM
GI50 ([10]; read-out: pGI50 (converted)): 8.51 µM
CC50 [10, 44]: > 100 µM
TGI ([10]; read-out: pTGI (converted)): 35.5 µM
growth at 100 µM [11]: -87%
growth at 100 µM [12]: -68%
growth at 100 µM [13]: -81%
growth at 100 µM [14]: -15%
growth at 100 µM [15]: -44%
growth at 100 µM [16]: -66%
growth at 100 µM [17]: -70%
growth at 100 µM [18]: -81%
growth at 100 µM [19]: -43%
growth at 100 µM [20]: -16%
growth at 1 µM [21]: 88%
growth at 1 µM [22]: 79%
growth at 1 µM [23]: 104%
growth at 1 µM [24]: 83%
growth at 1 µM [25]: 98%
growth at 1 µM [26]: 73%
growth at 1 µM [27]: 95%
growth at 1 µM [28]: 78%
growth at 1 µM [29]: 94%
growth at 0.1 µM [30]: 95%
growth at 0.1 µM [31]: 106%
growth at 0.1 µM [32]: 91%
growth at 0.1 µM [33]: 90%
growth at 0.1 µM [34]: 80%
growth at 0.1 µM [35]: 94%
growth at 0.1 µM [36]: 91%
growth at 0.01 µM [37]: 93%
growth at 0.01 µM [38]: 101%
growth at 0.01 µM [39]: 97%
growth at 0.01 µM [40]: 97%
growth at 0.01 µM [41]: 97%
growth at 0.01 µM [42]: 102%
